pEC50: −log10 of the molar value. Converted amounts (≈) assume the structure as drawn. Read-outs that look alike come from different tables or passages of the source.
Tests used:
[1] = test system: S. epidermidis MRSE 403/11; assay: MIC, hospital methicillin-resistant strain; format: cell-based; conditions: Staphylococcus epidermidis
Protocol: (§1) The antimicrobial activity of the compounds was tested on Gram-positive bacteria (Staphylococcus aureus NCTC 4163, Staphylococcus aureus ATCC 25923, Staphylococcus aureus ATCC 6538, Staphylococcus aureus ATCC 29213, Staphylococcus epidermidis ATCC 12228, Staphylococcus epidermidis ATCC 35984, Enterococcus faecalis ATCC 29212, Bacillus subtilis ATCC 6633, Bacillus cereus ATCC 11778, Micrococcus luteus ATCC 9341, Micrococcus luteus ATCC 10240); Gram-negative rods (Escherichia coli ATCC 10538, Escherichia coli ATCC 25922, Escherichia coli NCTC 8196, Proteus vulgaris NCTC 4635, Pseudomonas aeruginosa ATCC 15442, Pseudomonas aeruginosa NCTC 6749, Pseudomonas aeruginosa ATCC 27863, Bordetella bronchiseptica ATCC 4617) and yeasts (Candida albicans ATCC 10231, Candida albicans ATCC 90028, Candida parapsilosis ATCC 22019). Other microorganisms used were obtained from the collection of the Department of Pharmaceutical Microbiology, Medical University of Warsaw, Poland.
(§2) Antibacterial activity was examined by the disc-diffusion method under standard conditions using Mueller-Hinton II agar medium (Becton Dickinson) according to CLSI (previously NCCLS) guidelines. Antifungal activities were assessed using Mueller-Hinton agar + 2% glucose and 0.5 µg/mL Methylene Blue Dye Medium. Sterile filter paper discs (9 mm diameter, Whatman No 3 chromatography paper) were dripped with tested compound solutions (in DMSO) to load 400 μg of a given compound per disc. Dry discs were placed on the surface of appropriate agar medium. The results (diameter of the growth inhibition zone) were read after 18 h of incubation at 35 °C. Minimal Inhibitory Concentration (MIC) was tested by the twofold serial microdilution method (in 96-well microtiter plates) using Mueller-Hinton Broth medium (Beckton Dickinson) for bacteria or RPMI-1640 medium for Candida species according to CLSI guidelines. The stock solution of tested agent was prepared in DMSO and diluted in sterile water. Concentrations of tested agents ranged from 0.125 to 512 µg/mL. The final inoculum of all studied microorganisms was 10^5 CFU/ mL^−1 (colony forming units per mL). Minimal inhibitory concentrations (the lowest concentration of a tested agent that prevents visible growth of a microorganism) were read after 18 h (bacteria) or 24 h (yeasts) of incubation at 35 °C.

[2] = test system: S. epidermidis MRSE 404/11; assay: MIC, hospital methicillin-resistant strain; format: cell-based; conditions: Staphylococcus epidermidis
Protocol: as §1, §2

[3] = test system: S. epidermidis MRSE 411/11; assay: MIC, hospital methicillin-resistant strain; format: cell-based; conditions: Staphylococcus epidermidis
Protocol: as §1, §2

[4] = test system: S. epidermidis MRSE 407/11; assay: MIC, hospital methicillin-resistant strain; format: cell-based; conditions: Staphylococcus epidermidis
Protocol: as §1, §2

[5] = test system: S. epidermidis MRSE 412/11; assay: MIC, hospital methicillin-resistant strain; format: cell-based; conditions: Staphylococcus epidermidis
Protocol: as §1, §2

[6] = test system: S. epidermidis MRSE 406/11; assay: MIC, hospital methicillin-resistant strain; format: cell-based; conditions: Staphylococcus epidermidis
Protocol: as §1, §2

[7] = test system: S. epidermidis MRSE 422/11; assay: MIC, hospital methicillin-resistant strain; format: cell-based; conditions: Staphylococcus epidermidis
Protocol: as §1, §2

[8] = test system: S. epidermidis MRSE 413/11; assay: MIC, hospital methicillin-resistant strain; format: cell-based; conditions: Staphylococcus epidermidis
Protocol: as §1, §2

[9] = test system: S. epidermidis MRSE 409/11; assay: MIC, hospital methicillin-resistant strain; format: cell-based; conditions: Staphylococcus epidermidis
Protocol: as §1, §2

[10] = test system: S. epidermidis MRSE 405/11; assay: MIC, hospital methicillin-resistant strain; format: cell-based; conditions: Staphylococcus epidermidis
Protocol: as §1, §2

M. luteus ATCC 9341 = assay: MIC, twofold serial microdilution; format: cell-based; conditions: Micrococcus luteus, ATCC9341; standard strain, 18 h, 35 °C
Protocol: as §1, §2

[11] = test system: S. epidermidis ATCC 12228; assay: MIC, twofold serial microdilution; format: cell-based; conditions: Staphylococcus epidermidis, ATCC12228; standard strain, 18 h, 35 °C
Protocol: as §1, §2

S. aureus NCTC 4163 = assay: MIC, twofold serial microdilution; format: cell-based; conditions: Staphylococcus aureus, NCTC4163; standard strain, 18 h, 35 °C
Protocol: as §1, §2

S. aureus ATCC 29213 = assay: MIC, twofold serial microdilution; format: cell-based; conditions: Staphylococcus aureus, ATCC29213; standard strain, 18 h, 35 °C
Protocol: as §1, §2

B. cereus ATCC 11778 = assay: MIC, twofold serial microdilution; format: cell-based; conditions: Bacillus cereus, ATCC11778; standard strain, 18 h, 35 °C
Protocol: as §1, §2

B. subtilis ATCC 6633 = assay: MIC, twofold serial microdilution; format: cell-based; conditions: Bacillus subtilis, ATCC6633; standard strain, 18 h, 35 °C
Protocol: as §1, §2

S. aureus ATCC 6538 = assay: MIC, twofold serial microdilution; format: cell-based; conditions: Staphylococcus aureus, ATCC6538; standard strain, 18 h, 35 °C
Protocol: as §1, §2

M. luteus ATCC 10240 = assay: MIC, twofold serial microdilution; format: cell-based; conditions: Micrococcus luteus, ATCC10240; standard strain, 18 h, 35 °C
Protocol: as §1, §2

E. faecalis ATCC 29212 = assay: MIC, twofold serial microdilution; format: cell-based; conditions: Enterococcus faecalis, ATCC29212; standard strain, 18 h, 35 °C
Protocol: as §1, §2

[12] = test system: S. epidermidis ATCC 35984; assay: MIC, twofold serial microdilution; format: cell-based; conditions: Staphylococcus epidermidis, ATCC35984; standard strain, 18 h, 35 °C
Protocol: as §1, §2

S. aureus ATCC 25923 = assay: MIC, twofold serial microdilution; format: cell-based; conditions: Staphylococcus aureus, ATCC25923; standard strain, 18 h, 35 °C
Protocol: as §1, §2

HIV-1 IIIB = assay: Anti-HIV-1 activity: protection of MT-4 cells from virus-induced cytopathogenicity (MTT); format: cell-based, Human Immunodeficiency Virus type-1; conditions: Human immunodeficiency virus 1, IIIB, MT4, 96 h, read-out: HIV-1IIIB EC50
From the text: (§3) Cell line supporting the multiplication of Human Immunodeficiency Virus type-1 (HIV-1) was the CD4+ human T-cells, derived from human hematological tumors, containing an integrated HTLV-1 genome (MT-4). Cells were purchased from American Type Culture Collection (ATCC). Human Immunodeficiency Virus type-1 (HIV-1) IIIB laboratory strain was obtained from the supernatant of the persistently infected H9/IIIB cells (NIH 1983).
The activity of compounds against HIV-1 was based on inhibition of virus-induced cytopathogenicity in MT-4 cell acutely infected with a multiplicity of infection (m.o.i.) of 0.01. Briefly, 50 μL of RPMI containing 1 × 10^4 MT-4 cells were added to each well of flat-bottom microtiter trays, containing 50 μL of RPMI without or with serial dilutions of test compounds. Then, 20 μL of a HIV-1 suspension containing 100 CCID50 were added. After a 4-day incubation at 37 °C, cell viability was determined by the MTT method.

staphylococci = assay: MIC against staphylococci; format: cell-based; conditions: moderate activity
Protocol: as §1, §2

[13] = Cytotoxicity against mock-infected MT-4 cells (MTT); format: cell-based, human; conditions: human, concentration reducing viability of mock-infected MT-4 cells by 50%
Protocol: as §3
Exponentially growing MT-4 cells were seeded at an initial density of 1 × 10^5 cells/mL in 96-well plates in RPMI-1640 medium, supplemented with 10% fetal bovine serum (FBS), 100 units/mL penicillin G and 100 μg/mL streptomycin. Cell cultures were then incubated at 37 °C in a humidified, 5% CO2 atmosphere, in the absence or presence of serial dilutions of tested compounds. Cell viability was determined after 96 h at 37 °C by the 3-(4,5-dimethylthiazol-2-yl)-2,5-diphenyl-tetrazolium bromide (MTT) method.

[14] = 50% protection of MT-4 cells from HIV-1 induced cytopathogenicity, MTT, 4-day incubation

| SMILES | MIC [1] [µg/mL] | MIC [2] [µg/mL] | MIC [3] [µg/mL] | MIC [4] [µg/mL] | MIC [5] [µg/mL] | MIC [6] [µg/mL] | MIC [7] [µg/mL] | MIC [8] [µg/mL] | MIC [9] [µg/mL] | MIC [10] [µg/mL] | MIC (M. luteus ATCC 9341) [µg/mL] | MIC [11] [µg/mL] | MIC (S. aureus NCTC 4163) [µg/mL] | MIC (S. aureus ATCC 29213) [µg/mL] | MIC (B. cereus ATCC 11778) [µg/mL] | MIC (B. subtilis ATCC 6633) [µg/mL] | MIC (S. aureus ATCC 6538) [µg/mL] | MIC (M. luteus ATCC 10240) [µg/mL] | MIC [12] [µg/mL] | MIC (S. aureus ATCC 25923) [µg/mL] | also measured |
| --- | --- | --- | --- | --- | --- | --- | --- | --- | --- | --- | --- | --- | --- | --- | --- | --- | --- | --- | --- | --- | --- |
| CSCCCNC(=S)Nc1ccc(Cl)c([N+](=O)[O-])c1 [Compound 29, 1-(4-chloro-3-nitrophenyl)-3-[3-(methylsulfanyl)propyl]thiourea] | 32 (≈ 100 µM) | 32 (≈ 100 µM) | 32 (≈ 100 µM) | 32 (≈ 100 µM) | 32 (≈ 100 µM) | 32 (≈ 100 µM) | 32 (≈ 100 µM) | 32 (≈ 100 µM) | 32 (≈ 100 µM) | 32 (≈ 100 µM) | 16 (≈ 50 µM) | 16 (≈ 50 µM) | 16 (≈ 50 µM) | 16 (≈ 50 µM) | 8 (≈ 25 µM) | 16 (≈ 50 µM) | 16 (≈ 50 µM) | 32 (≈ 100 µM) | 16 (≈ 50 µM) | 16 (≈ 50 µM) | MIC (E. faecalis ATCC 29212): 64 µg/mL (≈ 200 µM); pEC50 (HIV-1 IIIB; [14]): < 4.47; melting point: 102 to 103.5 °C; MIC range towards staphylococci (staphylococci): 8 to 16 µg/mL; CC50 at 96 h [13]: 33.7 µM |
| C=CCNC(=S)Nc1ccc(Cl)c([N+](=O)[O-])c1 [Compound 28, 1-(4-chloro-3-nitrophenyl)-3-prop-2-en-1-ylthiourea] | 64 (≈ 236 µM) | 64 (≈ 236 µM) | 64 (≈ 236 µM) | 64 (≈ 236 µM) | 128 (≈ 471 µM) | 64 (≈ 236 µM) | 128 (≈ 471 µM) | 64 (≈ 236 µM) | 64 (≈ 236 µM) | 64 (≈ 236 µM) | 32 (≈ 118 µM) | 32 (≈ 118 µM) | 64 (≈ 236 µM) | 64 (≈ 236 µM) | 32 (≈ 118 µM) | 32 (≈ 118 µM) | 32 (≈ 118 µM) | 32 (≈ 118 µM) | 32 (≈ 118 µM) | 32 (≈ 118 µM) | MIC (E. faecalis ATCC 29212): 64 µg/mL (≈ 236 µM); pEC50 (HIV-1 IIIB; [14]): ≤ 4.37; melting point: 112 to 114 °C; CC50 at 96 h [13]: 43 µM |
| O=[N+]([O-])c1cc(NC(=S)NC2CC3CCC2C3)ccc1Cl (stereo not shown) [Compound 24, 1-bicyclo[2.2.1]hept-2-yl-3-(4-chloro-3-nitrophenyl)thiourea] | 4 (≈ 12.3 µM) | 4 (≈ 12.3 µM) | 4 (≈ 12.3 µM) | 4 (≈ 12.3 µM) | 4 (≈ 12.3 µM) | 8 (≈ 24.6 µM) | 4 (≈ 12.3 µM) | 4 (≈ 12.3 µM) | 4 (≈ 12.3 µM) | 4 (≈ 12.3 µM) | 32 (≈ 98.2 µM) | 16 (≈ 49.1 µM) | 8 (≈ 24.6 µM) | 8 (≈ 24.6 µM) | 8 (≈ 24.6 µM) | 8 (≈ 24.6 µM) | 8 (≈ 24.6 µM) | 16 (≈ 49.1 µM) | 16 (≈ 49.1 µM) | 8 (≈ 24.6 µM) | pEC50 (HIV-1 IIIB): < 4.80; melting point: 94 to 96 °C; MIC range towards staphylococci (staphylococci): 8 to 16 µg/mL; CC50 at 96 h [13]: 16 µM |

Reference: paper PMC6222614, “Disubstituted 4-Chloro-3-nitrophenylthiourea Derivatives: Antimicrobial and Cytotoxic Studies” (Molecules : A Journal of Synthetic Chemistry and Natural …, 2018)
